Test in all cases: In vitro MIC, agar dilution
Common to all, as to assay type: cell-based
(In general: In agar dilution the substance is mixed into plates at graded concentrations.)

In one test the test system is S. aureus ATCC 29213. Particulars: for MIC: Staphylococcus aureus, ATCC29213, read-out: minimum inhibitory concentration (MIC). The gist of the method:
(§1)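 Agar dilution on Mueller-Hinton plates: spots of roughly 10^4 cfu of log-phase bacteria were placed on agar containing serial two-fold compound dilutions, from a 128 μg/mL top working level to ≤0.25 μg/mL, each in duplicate. After 16-20 hours at 35-36° C, the lowest growth-inhibiting concentration was taken as the MIC.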

The next test has as its system E. faecalis ATCC 29212. To be noted: for MIC: Enterococcus faecalis, ATCC29212, read-out: minimum inhibitory concentration (MIC). The gist of the method:
as §1

A further test relates to P. aeruginosa ATCC 27853. To be noted: for MIC: Pseudomonas aeruginosa, ATCC27853, read-out: minimum inhibitory concentration (MIC). The gist of the method:
as §1

Test [1] has as its system S. aureus 76(Meth^R)(lac^+). To be noted: for MIC: Staphylococcus aureus, read-out: minimum inhibitory concentration (MIC). The gist of the method:
as §1

The subject of test [2] is S. haemolyticus 05(Meth^R). Particulars: for MIC: Staphylococcus haemolyticus, read-out: minimum inhibitory concentration (MIC). The gist of the method:
as §1

Another test concerns E. faecium A491(Amp^R). To be noted: for MIC: Enterococcus faecium, read-out: minimum inhibitory concentration (MIC). The gist of the method:
as §1

Test [3] relates to S. aureus PC1(Meth^S)(lac^+). To be noted: for MIC: Staphylococcus aureus, read-out: minimum inhibitory concentration (MIC). The gist of the method:
as §1

The test system of another test is E. faecium ATCC 35667. Particulars: for MIC: Enterococcus faecium, ATCC35667, read-out: minimum inhibitory concentration (MIC). The gist of the method: as §1
The next test concerns E. coli ATCC 25992. To be noted: for MIC: Escherichia coli, ATCC25992, read-out: minimum inhibitory concentration (MIC). The gist of the method:
as §1

Test [4] concerns S. aureus ATCC 33593(Meth^R). To be noted: for MIC: Staphylococcus aureus, ATCC33593, read-out: minimum inhibitory concentration (MIC). The gist of the method:
as §1

Test [5] deals with S. aureus Spain #356(Meth^R). Particulars: for MIC: Staphylococcus aureus, read-out: minimum inhibitory concentration (MIC). The gist of the method:
as §1

The next test concerns E. faecium VanA(Van^R). Particulars: for MIC: Enterococcus faecium, read-out: minimum inhibitory concentration (MIC). The gist of the method:
as §1

The next test relates to E. faecalis VanB(Van^R). Particulars: for MIC: Enterococcus faecalis, read-out: minimum inhibitory concentration (MIC). The gist of the method: as §1
Test [6] has as its system S. aureus ATCC 13709(Meth^S). Particulars: for MIC: Staphylococcus aureus, ATCC13709, S. aureus ATCC 13709(Meth^S), read-out: minimum inhibitory concentration (MIC). The gist of the method: as §1
In test [7] the test system is S. aureus Col(Meth^R)(lac^-). To be noted: for MIC: Staphylococcus aureus, read-out: minimum inhibitory concentration (MIC). The gist of the method:
(§2)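 Two-fold dilutions (128 to ≤0.25 μg/mL, in duplicate) were poured into Mueller-Hinton agar. Log-phase broth cultures were spot-inoculated at about 10^4 cfu per spot and incubated 35-36°C for 16-20 hours; the MIC was the lowest concentration inhibiting growth. Col is a high-level PBP2a producer; Col 8A is its isogenic PBP2a-lacking partner.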

Test [8] relates to S. aureus Col8A(Meth^S)(lac^-). Particulars: S. aureus Col8A(Meth^S)(lac^-); for MIC: Staphylococcus aureus, read-out: minimum inhibitory concentration (MIC). The gist of the method: as §2

Structures can show the parent of a compound that is named as a salt.

For the compound `NCCOCc1cnccc1SC1=C(C(=O)O)N2C(=O)[C@@H](NC(=O)/C(=N\O)c3nc(N)sc3Cl)[C@H]2SC1` [Cmpd 40, (7R)-7-[(Z)-2-(2-amino-5-chlorothiazol-4-yl)-2-(hydroxyimino)acetamido]-3-(3-(2-aminoethoxymethyl)pyrid-4-ylthio)-3-cephem-4-carboxylate, trifluoroacetic acid salt], the MIC was 0.25 µg/mL with S. aureus ATCC 29213; 0.13 µg/mL with E. faecalis ATCC 29212; above 32 µg/mL in the test with P. aeruginosa ATCC 27853; 2 µg/mL in [1]; 4 µg/mL in test [2]; 16 µg/mL in the test with E. faecium A491(Amp^R). Further, the MIC in test [3] was 0.13 µg/mL; with E. faecium ATCC 35667, 1 µg/mL; with E. coli ATCC 25992, 8 µg/mL; in [4], 2 µg/mL; in [5], 2 µg/mL; with E. faecium VanA(Van^R) it was 2 µg/mL. For the same compound, the MIC worked out at 0.25 µg/mL in the test with E. faecalis VanB(Van^R), 0.25 µg/mL in [6], 2 µg/mL in test [7] and 0.5 µg/mL in test [8].
As for `Nc1nc(/C(=N/O)C(=O)N[C@@H]2C(=O)N3C(C(=O)O)=C(Sc4ccncc4CSC4CCNC4)CS[C@H]23)c(Cl)s1` (stereo partly drawn) [Cmpd 42, (7R)-7-[(Z)-2-(2-amino-5-chlorothiazol-4-yl)-2-(hydroxyimino)acetamido]-3-(3-(pyrrolidin-3-ylthiomethyl)pyrid-4-ylthio)-3-cephem-4-carboxylate, trifluoroacetic acid salt], the MIC in the test on S. aureus ATCC 29213 is 0.13 µg/mL; in the test on E. faecalis ATCC 29212, at most 0.06 µg/mL; with P. aeruginosa ATCC 27853, 32 µg/mL; in [1], 1 µg/mL; in test [2], 2 µg/mL; in the test with E. faecium A491(Amp^R) it was 4 µg/mL. The MIC turned out to be 0.13 µg/mL in test [3]; 0.25 µg/mL in the test with E. faecium ATCC 35667; 2 µg/mL in the test with E. coli ATCC 25992; 1 µg/mL in [4]; 1 µg/mL in test [5]; 0.5 µg/mL in the test with E. faecium VanA(Van^R). Also, the MIC in the test with E. faecalis VanB(Van^R) is at most 0.06 µg/mL; in test [6], 0.13 µg/mL; in [7], 0.5 µg/mL; in [8], 0.25 µg/mL.
`CNCC(=O)NCCSCc1cnccc1SC1=C(C(=O)O)N2C(=O)[C@@H](NC(=O)/C(=N\O)c3nc(N)sc3Cl)[C@H]2SC1` [Cmpd 43, (7R)-7-[(Z)-2-(2-amino-5-chlorothiazol-4-yl)-2-(hydroxyimino)acetamido]-3-[3-(N-methylglycyl)aminoethylthiomethylpyrid-4-ylthio]-3-cephem-4-carboxylate, trifluoroacetic acid salt]: the MIC is 0.5 µg/mL in the test with S. aureus ATCC 29213; 0.13 µg/mL in the test with E. faecalis ATCC 29212; above 32 µg/mL in the test with P. aeruginosa ATCC 27853; 2 µg/mL in test [1]; 4 µg/mL in [2]; 8 µg/mL in the test with E. faecium A491(Amp^R). The MIC in test [3] was 1 µg/mL; in the test on E. faecium ATCC 35667 it was 1 µg/mL; in the test with E. coli ATCC 25992, 8 µg/mL; in test [4], 2 µg/mL; in test [5], 2 µg/mL; in the test on E. faecium VanA(Van^R), 1 µg/mL. The MIC with E. faecalis VanB(Van^R) is 0.25 µg/mL; in [6] it was 0.5 µg/mL; in test [7], 2 µg/mL; in test [8] it was 0.5 µg/mL.
With `NC/C=C\Cc1cnccc1SC1=C(C(=O)O)N2C(=O)[C@@H](NC(=O)/C(=N\O)c3nc(N)sc3Cl)[C@H]2SC1.O=C(O)C(F)(F)F` [Cmpd 50, (7R)-7-[(Z)-2-(2-amino-5-chlorothiazol-4-yl)-2-(hydroxyimino)acetamido]-3-(3-(4-amino-2-Z-buten-1-yl)pyrid-4-ylthio)-3-cephem-4-carboxylate, trifluoroacetic acid salt], the “minimum inhibitory concentration (MIC)” value is 0.13 µg/mL in the test on S. aureus ATCC 29213; 0.13 µg/mL with E. faecalis ATCC 29212; above 32 µg/mL in the test on P. aeruginosa ATCC 27853; 2 µg/mL in [1]; 4 µg/mL in test [2]; 16 µg/mL with E. faecium A491(Amp^R). Besides, the “minimum inhibitory concentration (MIC)” value in test [3] worked out at 0.25 µg/mL; with E. faecium ATCC 35667, 1 µg/mL; in the test with E. coli ATCC 25992, 4 µg/mL; in [4], 2 µg/mL; in [5], 2 µg/mL; in the test with E. faecium VanA(Van^R) it was 2 µg/mL. Moreover, the “minimum inhibitory concentration (MIC)” value in the test with E. faecalis VanB(Van^R) came to 0.5 µg/mL; in [6] (S. aureus ATCC 13709(Meth^S)), 0.13 µg/mL; in test [7], 2 µg/mL; in test [8], 0.25 µg/mL.
`Nc1nc(/C(=N/O)C(=O)N[C@@H]2C(=O)N3C(C(=O)O)=C(Sc4ccncc4CSC4CCNCC4)CS[C@H]23)c(Cl)s1` [Cmpd 52, (7R)-7-[(Z)-2-(2-amino-5-chlorothiazol-4-yl)-2-(hydroxyimino)acetamido]-3-(3-(piperidine-4-ylthiomethyl)pyrid-4-ylthio)-3-cephem-4-carboxylate, trifluoroacetic acid salt]: the MIC is 0.5 µg/mL with S. aureus ATCC 29213; at most 0.06 µg/mL in the test with E. faecalis ATCC 29212; above 32 µg/mL in the test on P. aeruginosa ATCC 27853; 2 µg/mL in test [1]; 2 µg/mL in [2]; 4 µg/mL with E. faecium A491(Amp^R). For the same compound, the MIC in [3] is 0.5 µg/mL; with E. faecium ATCC 35667, at most 0.06 µg/mL; with E. coli ATCC 25992, 2 µg/mL; in test [4] it was 2 µg/mL; in test [5], 2 µg/mL; in the test on E. faecium VanA(Van^R), 1 µg/mL. Besides, the MIC in the test on E. faecalis VanB(Van^R) worked out at 0.13 µg/mL; in test [6], 0.5 µg/mL; in test [7], 2 µg/mL; in [8], 0.25 µg/mL.
For the compound `NCC[S+]([O-])Cc1cnccc1SC1=C(C(=O)O)N2C(=O)[C@@H](NC(=O)/C(=N\O)c3nc(N)sc3Cl)[C@H]2SC1` (stereo partly drawn) [Cmpd 53, (7R)-7-[(Z)-2-(2-amino-5-chlorothiazol-4-yl)-2-(hydroxyimino)acetamido]-3-(3-aminoethylsulfinylmethylpyrid-4-ylthio)-3-cephem-4-carboxylate, trifluoroacetic acid salt], the MIC is 0.5 µg/mL with S. aureus ATCC 29213; 0.13 µg/mL in the test with E. faecalis ATCC 29212; above 32 µg/mL with P. aeruginosa ATCC 27853; 4 µg/mL in [1]; 4 µg/mL in test [2]; 16 µg/mL with E. faecium A491(Amp^R). In addition, the MIC was found to be 1 µg/mL in test [3]; 1 µg/mL in the test on E. faecium ATCC 35667; 4 µg/mL in the test with E. coli ATCC 25992; 2 µg/mL in test [4]; 4 µg/mL in [5]; 2 µg/mL with E. faecium VanA(Van^R). In addition, the MIC amounted to 0.25 µg/mL in the test with E. faecalis VanB(Van^R), 0.25 µg/mL in [6], 4 µg/mL in test [7] and 0.5 µg/mL in test [8].
For the compound `CN(C)C(=O)[C@@H]1CC(SCc2cnccc2SC2=C(C(=O)O)N3C(=O)[C@@H](NC(=O)/C(=N\O)c4nc(N)sc4Cl)[C@H]3SC2)CN1` (stereo partly drawn) [Cmpd 55, (7R)-7-[(Z)-2-(2-amino-5-chlorothiazol-4-yl)-2-(hydroxyimino)acetamido]-3-(3-(5S-5-N,N-dimethylcarboxamidopyrrolidin-3-ylthiomethyl)pyrid-4-ylthio)-3-cephem-4-carboxylate, trifluoroacetic acid salt], the MIC with S. aureus ATCC 29213 was 0.5 µg/mL; in the test with E. faecalis ATCC 29212 it was 0.25 µg/mL; in the test on P. aeruginosa ATCC 27853, above 32 µg/mL; in test [1], 4 µg/mL; in [2] it was 4 µg/mL; in the test with E. faecium A491(Amp^R), 16 µg/mL. Moreover, the MIC in test [3] turned out to be 1 µg/mL; in the test on E. faecium ATCC 35667, 0.5 µg/mL; in the test on E. coli ATCC 25992, 8 µg/mL; in test [4], 2 µg/mL; in [5] it was 4 µg/mL; in the test with E. faecium VanA(Van^R), 2 µg/mL. In addition, the MIC in the test on E. faecalis VanB(Van^R) came out at 0.5 µg/mL; in test [6] it was 0.25 µg/mL; in [7], 4 µg/mL; in test [8], 0.5 µg/mL.
